Molecular target: T1, human acetyl-CoA carboxylase 2 (ACC2) (Homo sapiens, UniProt O00763)
T1 construct: The cDNA encoding amino acids 144 to 2458 of human acetyl-CoA carboxylase 2; made in house; host or cells: Sf9 insect cells (baculovirus, pFastBac1)
Assay: Acetyl-CoA carboxylase enzyme assay (malonyl-CoA formation by LC/MS/MS)
Assay type: biochemical
Settings: recombinant human ACC2 (aa 144-2458); read-out: IC50 ACC2
Summary of the method: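 Malonyl-CoA formation was read by LC/MS/MS MRM against a [13C3]-malonyl-CoA internal standard, after acetic acid quench. The enzyme was baculovirus/Sf9-expressed human ACC2 residues 144–2458, given 15 minutes room-temperature compound preincubation in HEPES pH 7.5 buffer with MgCl2, citrate and DTT. Substrate solution held 50 μM acetyl-CoA, 120 μM ATP and 2 mM KHCO3.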

T1 sequence (O00763 144-2458): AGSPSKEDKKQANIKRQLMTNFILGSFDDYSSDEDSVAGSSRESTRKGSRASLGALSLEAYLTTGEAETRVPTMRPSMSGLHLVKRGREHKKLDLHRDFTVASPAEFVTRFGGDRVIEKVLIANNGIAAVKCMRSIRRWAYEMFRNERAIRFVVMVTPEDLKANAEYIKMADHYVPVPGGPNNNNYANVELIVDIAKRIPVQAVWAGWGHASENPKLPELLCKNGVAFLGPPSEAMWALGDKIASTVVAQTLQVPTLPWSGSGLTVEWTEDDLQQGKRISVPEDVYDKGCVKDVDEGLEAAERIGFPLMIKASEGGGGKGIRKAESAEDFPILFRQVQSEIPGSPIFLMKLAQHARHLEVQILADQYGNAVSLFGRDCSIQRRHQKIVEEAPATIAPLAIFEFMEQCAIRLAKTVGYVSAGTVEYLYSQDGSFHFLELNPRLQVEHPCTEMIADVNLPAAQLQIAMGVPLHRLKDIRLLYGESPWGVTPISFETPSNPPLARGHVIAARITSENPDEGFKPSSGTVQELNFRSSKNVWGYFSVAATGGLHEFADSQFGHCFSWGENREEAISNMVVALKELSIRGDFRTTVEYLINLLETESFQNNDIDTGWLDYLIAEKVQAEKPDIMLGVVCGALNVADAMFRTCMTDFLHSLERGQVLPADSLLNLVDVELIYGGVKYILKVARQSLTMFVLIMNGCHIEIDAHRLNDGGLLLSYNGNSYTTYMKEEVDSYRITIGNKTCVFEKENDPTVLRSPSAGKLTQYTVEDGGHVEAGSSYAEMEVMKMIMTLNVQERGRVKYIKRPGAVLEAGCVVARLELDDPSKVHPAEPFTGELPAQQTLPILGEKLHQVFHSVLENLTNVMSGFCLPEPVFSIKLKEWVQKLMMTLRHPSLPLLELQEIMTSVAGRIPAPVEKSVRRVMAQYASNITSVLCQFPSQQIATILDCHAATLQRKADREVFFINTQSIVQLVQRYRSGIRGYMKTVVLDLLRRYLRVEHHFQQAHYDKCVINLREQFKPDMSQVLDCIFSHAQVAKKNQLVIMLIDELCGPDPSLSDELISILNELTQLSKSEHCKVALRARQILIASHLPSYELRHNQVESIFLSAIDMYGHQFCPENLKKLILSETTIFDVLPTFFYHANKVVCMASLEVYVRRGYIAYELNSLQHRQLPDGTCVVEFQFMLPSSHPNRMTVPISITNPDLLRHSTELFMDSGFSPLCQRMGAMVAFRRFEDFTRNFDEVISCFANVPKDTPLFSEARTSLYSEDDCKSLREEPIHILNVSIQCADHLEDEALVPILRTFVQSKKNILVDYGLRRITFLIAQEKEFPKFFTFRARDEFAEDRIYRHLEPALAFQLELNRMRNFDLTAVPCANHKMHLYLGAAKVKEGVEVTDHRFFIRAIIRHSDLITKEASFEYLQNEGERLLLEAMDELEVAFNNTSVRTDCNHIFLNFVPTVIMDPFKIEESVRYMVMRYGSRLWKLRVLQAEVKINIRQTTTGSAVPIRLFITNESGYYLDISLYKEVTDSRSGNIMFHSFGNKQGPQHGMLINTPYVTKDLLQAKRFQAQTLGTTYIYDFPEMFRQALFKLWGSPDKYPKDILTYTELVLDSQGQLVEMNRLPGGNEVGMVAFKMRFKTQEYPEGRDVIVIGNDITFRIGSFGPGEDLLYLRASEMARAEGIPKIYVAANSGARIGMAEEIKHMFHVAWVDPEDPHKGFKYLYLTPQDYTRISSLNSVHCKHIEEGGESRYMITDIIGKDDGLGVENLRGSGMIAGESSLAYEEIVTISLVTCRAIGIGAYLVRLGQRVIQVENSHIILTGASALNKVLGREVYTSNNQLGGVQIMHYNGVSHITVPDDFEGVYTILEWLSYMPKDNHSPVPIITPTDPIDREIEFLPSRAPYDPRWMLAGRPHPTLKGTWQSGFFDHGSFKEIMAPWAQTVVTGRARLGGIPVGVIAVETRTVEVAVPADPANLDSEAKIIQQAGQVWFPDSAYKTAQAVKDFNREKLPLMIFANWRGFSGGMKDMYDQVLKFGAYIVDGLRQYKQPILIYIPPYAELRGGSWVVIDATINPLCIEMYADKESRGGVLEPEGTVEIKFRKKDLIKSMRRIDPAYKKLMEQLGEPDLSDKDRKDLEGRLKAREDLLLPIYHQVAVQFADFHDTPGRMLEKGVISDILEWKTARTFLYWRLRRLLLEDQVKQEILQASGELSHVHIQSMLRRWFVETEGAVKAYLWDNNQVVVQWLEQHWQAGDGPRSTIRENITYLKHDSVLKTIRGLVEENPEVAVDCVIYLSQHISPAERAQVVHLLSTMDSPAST

Structure (SMILES)	IC50 [nM]
CC(NC(=O)C1CCC(NS(=O)(=O)c2cnc3c(c2)NC2CCCCC2N3)CC1)c1ccc(F)cc1 [Example 162, (1S,4R)-N-((R)-1-(4-fluorophenyl)ethyl)-4-((5aS,9aS)-5,5a,6,7,8,9,9a,10-octahydropyrido[3,2-b]quinoxaline-3-sulfonamido)cyclohexanecarboxamide]	125
O=C(O)[C@@H]1CCCN(C(=O)[C@H]2CC[C@H](NS(=O)(=O)c3ccc4ccccc4c3)CC2)C1 [Example 163, (R)-1-((1r,4R)-4-(naphthalene-2-sulfonamido)cyclohexanecarbonyl)piperidine-3-carboxylic acid]	8520
COC(=O)CN1CCCc2ccc(S(=O)(=O)N[C@H]3CC[C@H](C(=O)N[C@H](C)c4ccc(F)cc4)CC3)cc21 [Example 164, methyl 2-(7-(N-((1R,4r)-4-((R)-1-(4-fluorophenyl)ethylcarbamoyl)cyclohexyl)sulfamoyl)-3,4-dihydroquinolin-1(2H)-yl)acetate]	350
Cc1cnc2c(S(=O)(=O)N[C@H]3CC[C@H](C(=O)N[C@H](C)c4ccc(F)cc4)CC3)cccc2c1 [Example 165, (1r,4R)-N-((R)-1-(4-fluorophenyl)ethyl)-4-(3-methylquinoline-8-sulfonamido)cyclohexanecarboxamide]	675
C[C@@H](NC(=O)[C@H]1CC[C@H](NS(=O)(=O)c2ccc3c(c2)N(CC(=O)O)CCC3)CC1)c1ccc(F)cc1 [Example 166, 2-(7-(N-((1R,4r)-4-((R)-1-(4-fluorophenyl)ethylcarbamoyl)cyclohexyl)sulfamoyl)-3,4-dihydroquinolin-1(2H)-yl)acetic acid]	910
CC(C)CC1CCc2cc(S(=O)(=O)N[C@H]3CC[C@H](C(=O)N[C@H](C)c4ccc(F)cc4)CC3)ccc2N1 (stereo partly drawn) [Example 167, (1r,4R)-N-((R)-1-(4-fluorophenyl)ethyl)-4-(2-isobutyl-1,2,3,4-tetrahydroquinoline-6-sulfonamido)cyclohexanecarboxamide]	205
CC1CCc2ccc(S(=O)(=O)N[C@H]3CC[C@H](C(=O)N[C@H](C)c4ccc(F)cc4)CC3)cc2N1 (stereo partly drawn) [Example 168, (1r,4R)-N-((R)-1-(4-fluorophenyl)ethyl)-4-(2-methyl-1,2,3,4-tetrahydroquinoline-7-sulfonamido)cyclohexanecarboxamide]	40
CC1CCc2cc(S(=O)(=O)N[C@H]3CC[C@H](C(=O)N[C@H](C)c4ccc(F)cc4)CC3)ccc2N1 (stereo partly drawn) [Example 169, (1r,4R)-N-((R)-1-(4-fluorophenyl)ethyl)-4-(2-methyl-1,2,3,4-tetrahydroquinoline-6-sulfonamido)cyclohexanecarboxamide]	110
CC[C@H]1CCc2cc(S(=O)(=O)N[C@H]3CC[C@H](C(=O)N[C@H](C)c4ccc(F)cc4)CC3)ccc2N1 [Example 170, (1r,4R)-4-((S)-2-ethyl-1,2,3,4-tetrahydroquinoline-6-sulfonamido)-N-((R)-1-(4-fluorophenyl)ethyl)cyclohexanecarboxamide]	90
CC[C@@H]1CCc2cc(S(=O)(=O)N[C@H]3CC[C@H](C(=O)N[C@H](C)c4ccc(F)cc4)CC3)ccc2N1 [Example 171, (1r,4R)-4-((R)-2-ethyl-1,2,3,4-tetrahydroquinoline-6-sulfonamido)-N-((R)-1-(4-fluorophenyl)ethyl)cyclohexanecarboxamide]	289
C[C@@H]1CNc2ncc(S(=O)(=O)N[C@H]3CC[C@H](C(=O)N[C@H](C)c4ccc(F)cc4)CC3)cc2N1 [Example 172, (1R,4R)-N-((R)-1-(4-fluorophenyl)ethyl)-4-((R)-2-methyl-1,2,3,4-tetrahydropyrido[3,2-b]pyrazine-7-sulfonamido)cyclohexanecarboxamide]	212
CC(C)(C)OC(=O)N1CCN(C(=O)C2CCC(NS(=O)(=O)c3ccc4c(c3)CCCN4)CC2)C(c2ccccc2)C1 (stereo not shown) [Example 173, tert-butyl 3-phenyl-4-((1r,4r)-4-(1,2,3,4-tetrahydroquinoline-6-sulfonamido)cyclohexanecarbonyl)piperazine-1-carboxylate]	75
CC(C)(C)OC(=O)N1CCN(C(=O)[C@H]2CC[C@H](NS(=O)(=O)c3ccc4c(c3)NCCC4)CC2)C(c2ccccc2)C1 (stereo partly shown) [Example 174, tert-butyl 3-phenyl-4-((1r,4r)-4-(1,2,3,4-tetrahydroquinoline-7-sulfonamido)cyclohexanecarbonyl)piperazine-1-carboxylate]	45
O=C([C@H]1CC[C@H](NS(=O)(=O)c2ccc3c(c2)CCCN3)CC1)N1CCNCC1c1ccccc1 (stereo partly shown) [Example 175, N-((1r,4r)-4-(2-phenylpiperazine-1-carbonyl)cyclohexyl)-1,2,3,4-tetrahydroquinoline-6-sulfonamide]	120

Results, then the molecule that gave them:

IC50 [nM]	Structure (SMILES)
105	O=C([C@H]1CC[C@H](NS(=O)(=O)c2ccc3c(c2)NCCC3)CC1)N1CCNCC1c1ccccc1 (stereo partly shown) [Example 176, N-((1r,4r)-4-(2-phenylpiperazine-1-carbonyl)cyclohexyl)-1,2,3,4-tetrahydroquinoline-7-sulfonamide]
90	O=C([C@H]1CC[C@H](NS(=O)(=O)c2ccc3c(c2)CCCN3)CC1)N1CCOCC1c1ccccc1 (stereo partly shown) [Example 177, N-((1r,4r)-4-(3-phenylmorpholine-4-carbonyl)cyclohexyl)-1,2,3,4-tetrahydroquinoline-6-sulfonamide]
55	O=C([C@H]1CC[C@H](NS(=O)(=O)c2ccc3c(c2)NCCC3)CC1)N1CCOCC1c1ccccc1 (stereo partly shown) [Example 178, N-((1r,4r)-4-(3-phenylmorpholine-4-carbonyl)cyclohexyl)-1,2,3,4-tetrahydroquinoline-7-sulfonamide]
433	CC(C)(C)OC(=O)N1CCN(C(=O)[C@H]2CC[C@H](NS(=O)(=O)c3ccc4c(c3)CCC(C(F)(F)F)N4)CC2)C(c2ccccc2)C1 (stereo partly shown) [Example 179, tert-butyl 3-phenyl-4-((1r,4r)-4-(2-(trifluoromethyl)-1,2,3,4-tetrahydroquinoline-6-sulfonamido)cyclohexanecarbonyl)piperazine-1-carboxylate]
138	CN1CCN(C)c2ncc(S(=O)(=O)N[C@H]3CC[C@H](C(=O)N4CCN(C(=O)OCc5ccccc5)CC4c4ccccc4)CC3)cc21 (stereo partly shown) [Example 180, benzyl 4-((1r,4r)-4-(1,4-dimethyl-1,2,3,4-tetrahydropyrido[3,2-b]pyrazine-7-sulfonamido)cyclohexanecarbonyl)-3-phenylpiperazine-1-carboxylate]
115	O=C(OCc1ccccc1)N1CCN(C(=O)[C@H]2CC[C@H](NS(=O)(=O)c3cnc4c(c3)NCCN4)CC2)C(c2ccccc2)C1 (stereo partly shown) [Example 181, benzyl 3-phenyl-4-((1r,4r)-4-(1,2,3,4-tetrahydropyrido[3,2-b]pyrazine-7-sulfonamido)cyclohexanecarbonyl)piperazine-1-carboxylate]
685	O=C([C@H]1CC[C@H](NS(=O)(=O)c2ccc3c(c2)CCC(C(F)(F)F)N3)CC1)N1CCNCC1c1ccccc1 (stereo partly shown) [Example 182, N-((1r,4r)-4-(2-phenylpiperazine-1-carbonyl)cyclohexyl)-2-(trifluoromethyl)-1,2,3,4-tetrahydroquinoline-6-sulfonamide]
135	CN1CCN(C)c2ncc(S(=O)(=O)N[C@H]3CC[C@H](C(=O)N4CCNCC4c4ccccc4)CC3)cc21 (stereo partly shown) [Example 183, 1,4-dimethyl-N-((1r,4r)-4-(2-phenylpiperazine-1-carbonyl)cyclohexyl)-1,2,3,4-tetrahydropyrido[3,2-b]pyrazine-7-sulfonamide]
> 35000	C[C@@H](NC(=O)[C@H]1CC[C@H](NS(=O)(=O)c2ccc3c(c2)C(NC(=O)C(F)(F)F)CCN3C(=O)C(F)(F)F)CC1)c1ccc(F)cc1 (stereo partly drawn) [Example 184, (1r,4R)-N-((R)-1-(4-fluorophenyl)ethyl)-4-(4-(2,2,2-trifluoroacetamido)-1-(2,2,2-trifluoroacetyl)-1,2,3,4-tetrahydroquinoline-6-sulfonamido)cyclohexanecarboxamide]
> 35000	C[C@@H](NC(=O)[C@H]1CC[C@H](NS(=O)(=O)c2ccc3c(c2)C(NC(=O)C(F)(F)F)CCN3)CC1)c1ccc(F)cc1 (stereo partly drawn) [Example 185, (1r,4R)-N-((R)-1-(4-fluorophenyl)ethyl)-4-(4-(2,2,2-trifluoroacetamido)-1,2,3,4-tetrahydroquinoline-6-sulfonamido)cyclohexanecarboxamide]
245	O=C([C@H]1CC[C@H](NS(=O)(=O)c2cnc3c(c2)NCCN3)CC1)N1CCNCC1c1ccccc1 (stereo partly shown) [Example 186, N-((1r,4r)-4-(2-phenylpiperazine-1-carbonyl)cyclohexyl)-1,2,3,4-tetrahydropyrido[3,2-b]pyrazine-7-sulfonamide]
245	O=C([C@H]1CC[C@H](NS(=O)(=O)c2ccc3c(c2)NC(C(F)(F)F)CC3)CC1)N1CCNCC1c1ccccc1 (stereo partly shown) [Example 187, N-((1r,4r)-4-(2-phenylpiperazine-1-carbonyl)cyclohexyl)-2-(trifluoromethyl)-1,2,3,4-tetrahydroquinoline-7-sulfonamide]
375	Cc1cc2c(cc1S(=O)(=O)N[C@H]1CC[C@H](C(=O)N[C@H](C)c3ccc(F)cc3)CC1)NCCC2 [Example 188, (1r,4R)-N-((R)-1-(4-fluorophenyl)ethyl)-4-(6-methyl-1,2,3,4-tetrahydroquinoline-7-sulfonamido)cyclohexanecarboxamide]
75	C[C@@H](NC(=O)C1CCC(NS(=O)(=O)c2cnc3c(c2)N[C@@H](Cc2ccccc2)CS3)CC1)c1ccc(F)cc1 (stereo partly drawn) [Example 189, 4-((S)-2-benzyl-2,3-dihydro-1H-pyrido[2,3-b][1,4]thiazine-7-sulfonamido)-N-((R)-1-(4-fluorophenyl)ethyl)cyclohexanecarboxamide]
